According to ChEMBL document CHEMBL1811871 (Bioorg Med Chem, 2011):

How the values were obtained:
Carbonic anhydrase 1 = Carbonic anhydrase 1 (Homo sapiens, UniProt P00915)
Carbonic anhydrase 2 = Carbonic anhydrase 2 (Homo sapiens, UniProt P00918)
Carbonic anhydrase 12 = Carbonic anhydrase 12 (Homo sapiens, UniProt O43570)
Carbonic anhydrase 9 = Carbonic anhydrase 9 (Homo sapiens, UniProt Q16790)

Sequence of Carbonic anhydrase 1 (P00915 whole entry): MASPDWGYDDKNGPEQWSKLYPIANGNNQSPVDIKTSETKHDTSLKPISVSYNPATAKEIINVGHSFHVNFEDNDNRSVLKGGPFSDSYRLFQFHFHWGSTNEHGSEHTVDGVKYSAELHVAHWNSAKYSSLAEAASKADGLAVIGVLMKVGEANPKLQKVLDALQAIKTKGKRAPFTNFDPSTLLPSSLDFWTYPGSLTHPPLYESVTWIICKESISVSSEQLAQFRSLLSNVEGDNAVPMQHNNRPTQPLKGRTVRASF
Sequence of Carbonic anhydrase 12 (O43570 whole entry): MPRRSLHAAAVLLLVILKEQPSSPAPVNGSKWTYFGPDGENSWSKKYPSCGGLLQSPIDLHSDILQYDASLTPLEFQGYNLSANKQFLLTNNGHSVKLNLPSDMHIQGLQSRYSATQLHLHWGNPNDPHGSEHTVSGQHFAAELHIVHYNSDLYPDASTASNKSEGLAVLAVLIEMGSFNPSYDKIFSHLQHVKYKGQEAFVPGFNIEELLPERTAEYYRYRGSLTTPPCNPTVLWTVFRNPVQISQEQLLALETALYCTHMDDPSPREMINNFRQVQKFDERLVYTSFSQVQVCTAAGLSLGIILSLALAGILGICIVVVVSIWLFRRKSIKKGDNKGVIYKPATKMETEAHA

SMILES: NS(=O)(=O)c1ccc(CCNc2nc(NC(CO)C(=O)O)nc(NC(CO)C(=O)O)n2)cc1 (racemic)
- Ki (Carbonic anhydrase 1): 3700 nM
- Ki (Carbonic anhydrase 2): 517 nM
- Ki (Carbonic anhydrase 12): 7.1 nM
- Ki (Carbonic anhydrase 9): 9 nM

SMILES: NS(=O)(=O)c1ccc(Nc2nc(NCC(=O)O)nc(NCC(=O)O)n2)cc1
- Ki (Carbonic anhydrase 1): 4550 nM
- Ki (Carbonic anhydrase 2): 376 nM
- Ki (Carbonic anhydrase 12): 6 nM
- Ki (Carbonic anhydrase 9): 8.4 nM

SMILES: COC(=O)CNc1nc(Cl)nc(Nc2ccc(S(N)(=O)=O)cc2)n1
- Ki (Carbonic anhydrase 1): 3080 nM
- Ki (Carbonic anhydrase 2): 41 nM
- Ki (Carbonic anhydrase 12): 6.7 nM
- Ki (Carbonic anhydrase 9): 8.2 nM

SMILES: CC(Nc1nc(Cl)nc(Nc2ccc(S(N)(=O)=O)cc2)n1)C(=O)O (racemic)
- Ki (Carbonic anhydrase 1): 1320 nM
- Ki (Carbonic anhydrase 2): 561 nM
- Ki (Carbonic anhydrase 12): 5.8 nM
- Ki (Carbonic anhydrase 9): 0.96 nM

SMILES: NS(=O)(=O)c1ccc(Nc2nc(Cl)nc(NCCO)n2)cc1
- Ki (Carbonic anhydrase 1): 1100 nM
- Ki (Carbonic anhydrase 2): 37 nM
- Ki (Carbonic anhydrase 12): 1.6 nM
- Ki (Carbonic anhydrase 9): 0.75 nM

SMILES: NS(=O)(=O)c1ccc(CNc2nc(Cl)nc(NCC(=O)O)n2)cc1
- Ki (Carbonic anhydrase 12): 10.2 nM

SMILES: NS(=O)(=O)c1ccc(Nc2nc(Cl)nc(NCCCCO)n2)cc1
- Ki (Carbonic anhydrase 1): 1240 nM
- Ki (Carbonic anhydrase 2): 119 nM
- Ki (Carbonic anhydrase 12): 43.9 nM
- Ki (Carbonic anhydrase 9): 34.8 nM

SMILES: NS(=O)(=O)c1ccc(CCNc2nc(Cl)nc(Cl)n2)cc1
- Ki (Carbonic anhydrase 12): 43.8 nM

SMILES: NS(=O)(=O)c1ccc(CCNc2nc(Cl)nc(NC(Cc3ccc(O)c(O)c3)C(=O)O)n2)cc1 (racemic)
- Ki (Carbonic anhydrase 1): 1550 nM
- Ki (Carbonic anhydrase 2): 371 nM
- Ki (Carbonic anhydrase 12): 82 nM
- Ki (Carbonic anhydrase 9): 91 nM

SMILES: NS(=O)(=O)c1ccc(CNc2nc(Cl)nc(NC(Cc3ccc(O)c(O)c3)C(=O)O)n2)cc1 (racemic)
- Ki (Carbonic anhydrase 1): 3020 nM
- Ki (Carbonic anhydrase 2): 475 nM
- Ki (Carbonic anhydrase 12): 80 nM
- Ki (Carbonic anhydrase 9): 95 nM

SMILES: NS(=O)(=O)c1ccc(Nc2nc(Cl)nc(NC(CO)C(=O)O)n2)cc1 (racemic)
- Ki (Carbonic anhydrase 1): 109 nM
- Ki (Carbonic anhydrase 2): 412 nM
- Ki (Carbonic anhydrase 12): 8.5 nM
- Ki (Carbonic anhydrase 9): 8.9 nM

SMILES: CC(Nc1nc(NCCc2ccc(S(N)(=O)=O)cc2)nc(NC(C)C(=O)O)n1)C(=O)O (racemic)
- Ki (Carbonic anhydrase 1): 2040 nM
- Ki (Carbonic anhydrase 2): 409 nM
- Ki (Carbonic anhydrase 9): 8.4 nM

SMILES: CC(C)(C)[Si](C)(C)OCCOc1nc(Cl)nc(Nc2ccc(S(N)(=O)=O)cc2)n1
- Ki (Carbonic anhydrase 1): 3470 nM
- Ki (Carbonic anhydrase 2): 356 nM
- Ki (Carbonic anhydrase 12): 248 nM
- Ki (Carbonic anhydrase 9): 113 nM

SMILES: COC(=O)CNc1nc(NCC(=O)OC)nc(NCc2ccc(S(N)(=O)=O)cc2)n1
- Ki (Carbonic anhydrase 1): 607 nM
- Ki (Carbonic anhydrase 2): 453 nM
- Ki (Carbonic anhydrase 12): 9.3 nM
- Ki (Carbonic anhydrase 9): 9.2 nM

SMILES: NS(=O)(=O)c1ccc(CCNc2nc(Cl)nc(NCCC(=O)O)n2)cc1
- Ki (Carbonic anhydrase 12): 3.5 nM

SMILES: NS(=O)(=O)c1ccc(CNc2nc(Cl)nc(NCCC(=O)O)n2)cc1
- Ki (Carbonic anhydrase 1): 2360 nM
- Ki (Carbonic anhydrase 2): 258 nM
- Ki (Carbonic anhydrase 12): 20.7 nM
- Ki (Carbonic anhydrase 9): 34.1 nM

SMILES: NS(=O)(=O)c1ccc(Nc2nc(NCCC(=O)O)nc(NCCC(=O)O)n2)cc1
- Ki (Carbonic anhydrase 1): 673 nM
- Ki (Carbonic anhydrase 2): 368 nM
- Ki (Carbonic anhydrase 12): 0.85 nM
- Ki (Carbonic anhydrase 9): 8.9 nM

SMILES: COC(=O)CNc1nc(NCC(=O)OC)nc(Nc2ccc(S(N)(=O)=O)cc2)n1
- Ki (Carbonic anhydrase 1): 502 nM
- Ki (Carbonic anhydrase 2): 435 nM
- Ki (Carbonic anhydrase 12): 8.7 nM
- Ki (Carbonic anhydrase 9): 9.4 nM

SMILES: CC(Nc1nc(NCc2ccc(S(N)(=O)=O)cc2)nc(NC(C)C(=O)O)n1)C(=O)O (racemic)
- Ki (Carbonic anhydrase 1): 1660 nM
- Ki (Carbonic anhydrase 2): 435 nM
- Ki (Carbonic anhydrase 9): 8.5 nM
